Data reported in patent US20050070510A1, “Substituted tetracycline compounds as synergistic antifungal agents” (Paratek Pharmaceuticals, Inc., priority 2001, published 2005).

Tested on: COS-1 cells
Assay: In vitro mammalian cytotoxicity assay (Resazurin)

Row | Structure (SMILES) | In Vitro Cytotoxicity
1 | CN(C)[C@@H]1C(O)=C(C(N)=O)C(=O)[C@@]2(C#N)C(O)=C3C(=O)c4c(ccc(Br)c4O)[C@H](N)[C@@]3(N)[C@H](O)[C@@]12N [CO] | * (toxicities greater than >25 μg/ml are represented by *)
2 | CCc1ccnc(-c2ccc(O)c3c2C[C@@]2(N)C[C@@]4(N)[C@H](N(C)C)C(O)=C(C(N)=O)C(=O)[C@@]4(C#N)C(O)=C2C3=O)c1 [VB] | ** (toxicities less than 25 μg/mL are represented by **)
3 | COc1ccc(CNCc2cccc(F)c2)cc1-c1ccc(O)c2c1[C@H](N)[C@]1(N)C(=C(O)[C@]3(C#N)C(=O)C(C(N)=O)=C(O)[C@@H](N(C)C)[C@]3(N)[C@H]1O)C2=O [QL] | * (toxicities greater than >25 μg/ml are represented by *)
4 | CCCC(C)(C)NC(=O)C1=C(O)[C@@H](N(C)C)[C@]2(N)[C@@H](O)[C@@]3(N)C(=C(O)[C@]2(C#N)C1=O)C(=O)c1c(O)cccc1[C@@H]3N [BD] | ** (toxicities less than 25 μg/mL are represented by **)
5 | CN(C)c1cc(CNC(=O)NCC(Cl)(Cl)Cl)c(O)c2c1C[C@@]1(N)C[C@@]3(N)[C@H](N(C)C)C(O)=C(C(N)=O)C(=O)[C@@]3(C#N)C(O)=C1C2=O [MX] | ** (toxicities less than 25 μg/mL are represented by **)
6 | CN(C)[C@@H]1C(O)=C(C(N)=O)C(=O)[C@@]2(C#N)C(O)=C3C(=O)c4c(O)ccc(-c5ccc(CN6CCOCC6)cc5)c4C[C@@]3(N)C[C@@]12N [HT] | * (toxicities greater than >25 μg/ml are represented by *)
7 | CCc1cc(C(C)(C)C)c(O)c2c1C[C@@]1(N)C[C@@]3(N)[C@H](N(C)C)C(O)=C(C(=O)NC(C)(C)C)C(=O)[C@@]3(C#N)C(O)=C1C2=O [LE] | ** (toxicities less than 25 μg/mL are represented by **)
8 | CCNC(=O)CNC(=O)c1cccc(-c2ccc(O)c3c2C[C@@]2(N)C[C@@]4(N)[C@H](N(C)C)C(O)=C(C(N)=O)C(=O)[C@@]4(C#N)C(O)=C2C3=O)c1 [PD] | * (toxicities greater than >25 μg/ml are represented by *)
9 | CO/N=C(/C)c1cc(C(C)(C)C)c(O)c2c1C[C@@]1(N)C[C@@]3(N)[C@H](N(C)C)C(O)=C(C(N)=O)C(=O)[C@@]3(C#N)C(O)=C1C2=O [RA] | ** (toxicities less than 25 μg/mL are represented by **)
10 | Cc1ccc(-c2ccc(O)c3c2C[C@@]2(N)C[C@@]4(N)[C@H](N(C)C)C(O)=C(C(N)=O)C(=O)[C@@]4(C#N)C(O)=C2C3=O)cc1 [FR] | ** (toxicities less than 25 μg/mL are represented by **)
11 | CCSC(=O)/C=C/c1ccc2c(c1O)C(=O)C1=C(O)[C@]3(C#N)C(=O)C(C(N)=O)=C(O)[C@@H](N(C)C)[C@]3(N)[C@@H](O)[C@]1(N)[C@H]2O [AT] | ** (toxicities less than 25 μg/mL are represented by **)
12 | Cc1sc(Nc2ccc3c(c2O)C(=O)C2=C(O)[C@]4(C#N)C(=O)C(C(N)=O)=C(O)[C@@H](N(C)C)[C@]4(N)[C@@H](O)[C@]2(N)[C@H]3O)nc1-c1ccccc1 [DW] | ** (toxicities less than 25 μg/mL are represented by **)
13 | CN(C)CC(=O)NCc1cc(N(C)C)c2c(c1O)C(=O)C1=C(O)[C@]3(C#N)C(=O)C(C(N)=O)=C(O)[C@@H](N(C)C)[C@]3(N)C[C@]1(N)C2 [LG] | ** (toxicities less than 25 μg/mL are represented by **)
14 | CCC(=O)c1ccc(O)c2c1C[C@@]1(N)C[C@@]3(N)[C@H](N(C)C)C(O)=C(C(N)=O)C(=O)[C@@]3(C#N)C(O)=C1C2=O [LI] | ** (toxicities less than 25 μg/mL are represented by **)
15 | CN(C)c1cc(-c2ccc(CN3CCN(CCO)CC3)o2)c(O)c2c1C[C@H]1C[C@H]3[C@H](N(C)C)C(O)=C(C(N)=O)C(=O)[C@@]3(O)C(O)=C1C2=O [Compound UC, 2-[4-(5-Minocyclin-9-yl-furan-2-ylmethyl)-piperazin-1-yl]-ethanol] | * (toxicities greater than >25 μg/ml are represented by *)
16 | CN(C)c1cc(NC(=O)Nc2ccccc2)c(O)c2c1C[C@@]1(N)C[C@@]3(N)[C@H](N(C)C)C(O)=C(C(N)=O)C(=O)[C@@]3(C#N)C(O)=C1C2=O [IB] | * (toxicities greater than >25 μg/ml are represented by *)
